One data set has as its system scopolamine treated rats. Put plainly: Morris water maze, scopolamine amnesia model. In kind it is in vivo, rat. To be noted: for mean latency to find the pedestal: Dihexa, Hinge 300 pmol, scopolamine 70 nmol. On the procedure:
Swim speed was determined from these values.

The subject of the next data set is c-Met receptor. Put plainly: c-Met phosphorylation in acute adult hippocampal slices. To be noted: 30 minutes. It is filed as cell-based, rat. The text has this:
Adult Sprague-Dawley rats (250 g+) obtained from Harlan Laboratories (Ca, USA) were anesthetized with isofluorane (Vet One™, MWI, Meridian, Id., USA) and decapitated. The brain was rapidly removed and placed into ice-chilled artificial cerebrospinal fluid (aCSF) for approximately 30 s. Both hemispheres were separated by a mid-saggital cut and both hippocampi removed. Slices were sectioned cross- and length-wise (400 μm) to ensure penetrability of the drug, using a Mcllwain tissue chopper (Brinkmann, Gomshall, UK) and transferred to a gassed (95% O2/5% CO2) incubation chamber containing aCSF for 90 minutes at room temperature. Slices were transferred to fresh tubes, aCSF was removed by careful suctioning and replaced with aCSF containing vehicle (aCSF+aCSF), 100 ng/ml with carrier free adult recombinant Hepatocyte Growth Factor (HGF) (R and D Systems, MN, USA) in aCSF, 10^−10 M Hinge (Harding lab), […], 10^−10 M Dihexa (Harding lab) in aCSF, 10^−12 M Dihexa in aCSF or 50 ng/ml HGF+10^−12 M Dihexa in aCSF for 30 minutes at 37° C. with gentle rocking. aCSF was removed and the slices were lysed using RIPA buffer (Upstate/Milipore, Billerica, Mass.) and inhibitor Cocktails I and II (Sigma, St. Louis, Mo.), sonicated on ice and clarified by centrifugation for 30 minutes, 13,000 rpm at 4° C. The supernatant was removed from the pellet and stored at −80° C. or processed immediately for gel electrophoresis.
Protein concentration of the samples was quantified using the BCA method (Pierce, Rockford, Ill.) following the manufacturers protocol. Samples were added to SDS-PAGE buffer and boiled for 10 min. before loading onto a 4-12% Bis-Tris pre-cast gel (Invitrogen, Carlsbad, Calif.) for electrophoresis. Proteins were transferred onto PVDF membranes (Bio Rad, Hercules, Calif.) and blocked with AquaBlock™ (New England Biolabs, Ipswich, Mass.) for 1 hour at room temperature (RT). Primary antibody incubation was done in AquaBlock™ with rabbit anti-Met and […] phospho-Met (Tyr1234/1235) (1:1000, Cell Signaling Technology, Danvers, Mass.) overnight at 4° C. Alternating washes were done with PBS and PBST. Secondary antibody (IRDye) (Rockland, Gilbertsville, Pa.) incubations were done in AquaBlock™ for one hour at RT. Blots were imaged using LI-COR Odyssey Infrared Imaging System (LI-COR Biosciences, Lincoln, Nebr.).

Data set [1] can be described thus: Blood stability in heparinized rat blood. It is filed as in vitro ADME. To be noted: rat. Here is the method:
At the end of each incubation, 20 μL of […]

For another data set, the target named is T1, human HGF (Homo sapiens, UniProt P14210).
T1 construct: purchased R&D Systems (Minneapolis, Minn.)
As to the kind of experiment: HGF dimerization (PAGE, silver staining). Particulars: 30 minutes, heparin. In kind it is biochemical. Here is the method:
HGF dimerization was assessed using PAGE followed by silver staining (Kawas et al., 2011). Human HGF at a concentration of 0.08 ng/μl with or without 6-AH analogs was incubated with heparin at a final concentration of 5 μg/ml. Loading buffer was then added to each sample and the mixture separated by native PAGE using gradient Criterion XT precast gels (4-12% Bis-Tris; Biorad Laboratories, Hercules, Calif.). Next the gel was silver stained for the detection of the HGF monomers and dimers. Bands were quantitated from digital images using a UVP phosphoimager (Upland, Calif.).

A short description of data set [2]: Blood-brain barrier penetrability study. Particulars: carotid infusion, 30 minutes. In kind it is in vivo, rat. On the procedure: To evaluate the of ability dihexa to penetrate the BBB and accumulate in the brain rats were fitted with carotid cannulas and infused with 10 μCi of ^3H-dihexa and 2 μCi of ^14C inulin, a vascular space marker, in 100 μL of isotonic saline. Thirty minutes after infusion, brains were removed and dissected and blood samples taken. After solubilization, ^3H and ^14C were quantified by dual window scintillation counting to determine the amount of dihexa and inulin in brain and blood samples. The ratio of dihexa/inulin in blood was then used to account for any blood contamination in the various brain regions.

Setting [3] is: scopolamine icv, dihexa icv 1 nmol.

“Also recorded” adds a separate entry of the source. Where a SMILES comes first, the peptide text is derived from it. [ ]: non-standard residue; d: D form. The star is where a group is joined. Hexanoyl = CCCCCC(=O)*; Ahx = NCCCCCC(=O)O

T1 sequence (P14210 32-728): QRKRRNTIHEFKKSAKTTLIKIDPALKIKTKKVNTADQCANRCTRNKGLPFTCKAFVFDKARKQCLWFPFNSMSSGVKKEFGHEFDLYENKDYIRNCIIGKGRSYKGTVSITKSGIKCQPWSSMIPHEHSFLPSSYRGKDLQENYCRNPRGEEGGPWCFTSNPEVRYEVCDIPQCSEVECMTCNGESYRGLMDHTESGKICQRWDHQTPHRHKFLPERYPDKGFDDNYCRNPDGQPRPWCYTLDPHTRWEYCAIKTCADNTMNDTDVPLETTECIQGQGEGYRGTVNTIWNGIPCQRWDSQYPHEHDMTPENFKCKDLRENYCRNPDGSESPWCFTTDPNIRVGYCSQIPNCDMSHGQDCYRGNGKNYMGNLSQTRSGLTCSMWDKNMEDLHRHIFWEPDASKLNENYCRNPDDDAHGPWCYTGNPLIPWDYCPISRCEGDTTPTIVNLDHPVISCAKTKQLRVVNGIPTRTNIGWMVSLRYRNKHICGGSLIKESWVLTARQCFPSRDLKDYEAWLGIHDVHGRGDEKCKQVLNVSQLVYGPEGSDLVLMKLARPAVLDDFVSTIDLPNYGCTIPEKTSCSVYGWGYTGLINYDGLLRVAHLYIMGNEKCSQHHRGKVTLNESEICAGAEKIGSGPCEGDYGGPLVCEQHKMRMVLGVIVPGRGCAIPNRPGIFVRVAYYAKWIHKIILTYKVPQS

Regarding `CCCCCC(=O)N[C@@H](Cc1ccc(O)cc1)C(=O)N[C@H](C(=O)NCCCCCC(N)=O)[C@@H](C)CC` [Dihexa, N-hexanoic-Tyr-Ile-(6)-aminohexanoic amide] (Hexanoyl-Tyr-Ile-[Ahx]-NH2), the “mean latency to find the pedestal” value is 115.2 s with scopolamine treated rats (day one of training, icv); 62.3 s with scopolamine treated rats (final day of training (day 8), icv); 63.0 s in the data set on scopolamine treated rats (fourth day of training, icv). The “time spent in the target quadrant, day 9 probe trial” value in the data set on scopolamine treated rats (dihexa at its highest dose, icv, ip and oral delivery) was “increased the time spent in the target quadrant”; in the data set on scopolamine treated rats (dihexa ip 0.05, 0.25, 0.50 mg/kg), “Each of the treatment groups was different than the scopolamine”; in the data set with scopolamine treated rats (dihexa oral 1.25 and 2.0 mg/kg) it was “Both of the treatment groups were different than the scopolamine”; with scopolamine treated rats (setting [3]) it was “vehicle control groups were not different”. Also, in the data set with scopolamine treated rats (i.c.v. injections, 8 days of training), the “latency to escape, Morris water maze (FIG. 21)” value was “show rapid facilitation of the task”. Further, the “latency to find the pedestal in the water maze” value with scopolamine treated rats (scopolamine icv, Dihexa ICV 10 pmoles (low dose)) is “not 10 pmoles”; in the data set with scopolamine treated rats (scopolamine icv, Dihexa ICV 100 pmoles (high dose), daily, 8 days) it was “reversed scopolamine-dependent learning deficits; also recorded: completely overcome the scopolamine deficits”; in the data set with scopolamine treated rats (scopolamine icv, Dihexa oral 1.25 mg/kg/day (low dose)) it was “partially reversed”; in the data set on scopolamine treated rats (scopolamine icv, Dihexa oral 2 mg/kg/day (high dose), 2 mg/kg/day), “no different than controls; also recorded: completely overcome the scopolamine deficits”; in the data set on scopolamine treated rats (scopolamine icv, Dihexa oral 2 mg/kg/day (high dose), listed as dihexa, 2 mg/kg/day), “indistinguishable from vehicle controls; also recorded: completely reversed the scopolamine-dependent learning deficit”. Besides, the “latency to find the submerged platform in the Morris water maze” value is on record as “significantly improved performance when compared to the scopolamine group on days 5-8” with scopolamine treated rats (scopolamine icv, dihexa icv 0.1 nmol); “significantly improved performance; also recorded: indistinguishable from the vehicle control group; also recorded: all time points for the 1 nmol dihexa group were different from the scopolamine group” in the data set on scopolamine treated rats (setting [3]); “not different than the scopolamine group” in the data set with scopolamine treated rats (scopolamine icv, dihexa ip 0.05 mg/kg); “different than the scopolamine” with scopolamine treated rats (scopolamine icv, dihexa ip 0.25 mg/kg); “indistinguishable from vehicle controls; also recorded: different than the scopolamine; also recorded: not different than the vehicle control group” in the data set with scopolamine treated rats (scopolamine icv, dihexa ip 0.50 mg/kg, 0.5 mg/kg). Further, the “c-Met phosphorylation vs vehicle (aCSF)” value in the data set with c-Met receptor (saturating doses: HGF 100 ng/ml, Dihexa 10^−10 M) is on record as “increased c-Met phosphorylation; also recorded: effectively augment c-Met phosphorylation”; in the data set with c-Met receptor (sub-threshold doses: HGF 50 ng/ml, Dihexa 10^−12 M) it was “not statistically different from control treated slices; also recorded: did not significantly increase c-Met receptor phosphorylation”. In data set [1], the “stable in the blood” value is listed as “over 5 hours”. Also, the “HGF dimerization in the presence of Dihexa” value at human HGF was “blocking HGF dimerization; also recorded: blocks HGF dimerization”. For the same molecule, the “average 3H/14C for blood” value in data set [2] came to 1687. Moreover, in data set [2] (14C-inulin vascular marker), the “concentration of 3H-dihexa in brain regions (3H/14C ratio vs blood)” value is “all the brain regions examined avidly concentrated dihexa”.

These data come from patent US9051351B2, “Hepatocyte growth factor mimics as therapeutic agents” (Washington State University, priority 2011, dated 2015).
